Measured values taken from patent US6649635B2, “Heteroarylcarboxamide compounds active against protein tyrosine kinase related disorders” (Sugen, Inc., priority 1997, dated 2003).
Like-named read-outs stand apart in the source and are kept apart here.

Legend:
[1] = biological target: T1, human EGF receptor (Homo sapiens, UniProt P00533); assay: EGF-induced DNA synthesis (BrdU incorporation) in 3T3/EGFRc7 cells; assay type: cell-based; conditions: read-out: EGF-induced (inhibition of DNA synthesis)
T1 construct: expressed in transfected cells; host or cells: NIH3T3 clone C7 (3T3/EGFRc7)
Description: (§1) The following example illustrates the ability of the compounds of the invention to inhibit FGFR-stimulated and PDGFR-stimulated DNA synthesis in cells. DNA synthesis is required for many of the activities of FGFP and PDGFR including, but not limited to, cell proliferation. Uridine is added in one set of samples to overcome any contribution made by inhibition of DHOD and just evaluate the inhibition of PDGFR or FGFR signaling. (See Greene, et al., Biochem. Pharmacol., 50(6):861 (1995), Nair, et al., Immunology Letters, 47:171 (1995)).
(§2) (1) EGF: mouse EGF, 201; Toyobo,Co., Ltd. Japan; PDGF, Boehringer Mannheim, Germany; FGF, Gibco.
(§3) (2) BrdU Labeling Reagent: 10 mM, in PBS (pH7.4) Cat. No. 1 647 229, Boehringer Mannheim, Germany.
(§4) (3) FixDenat: fixation solution (ready to use), Cat. No. 1 647 229, Boehringer Mannheim, Germany.
(§5) (4) Anti-BrdU-POD: mouse monoclonal antibody conjugated with peroxidase, Cat. No. 1 647 229, Boehringer Mannheim, Germany.
(§6) (5) TMB Substrate Solution: tetramethylbenzidine (TMB), ready to use, Cat. No. 1 647 229, Boehringer Mannheim, Germany.
(§7) (6) PBS Washing Solution: 1×phosphate buffered saline, pH 7.4
(§8) (7) Albumin, Bovine (BSA): fraction V powder; A-8551, Sigma Chemical Co., USA.
(§9) (8) NIH3T3 clone C7 (3T3/EGFRc7)(Honegger et al., Cell 51:199-209, 1987)) engineered to over-express human EGF receptor.
(§10) These cells natively express FGFR and PDGFR.
(§11) (1) 3T3/EGFRc7 cells were seeded at 8000 cells/well in DMEM, 10% CS, 2 mM Gln in a 96 well plate. Cells are incubated overnight at 37 degrees C. in 5% CO2.
(§12) (2) After 24 hours, the cells were washed with PBS, and then serum starved in serum free medium (0%CS DMEM with 0.1% BSA) for 24 hours.
(§13) (3) On day 3, ligand (2n EGF or 1.5 nM FGF or 3.8 nM PDGF) prepared in DMEM with 0.1% BSA and 30 μM (final concentration) uridine) and test compound was added to the cells simultaneously. […]
(§14) (10) The absorbance of the samples was measured at 410 nm (in “dual wavelength” mode with a filter reading at 490 nm, as a reference wavelength) on a Dynatech ELISA plate reader.

[2] = test system: FGFR; assay: FGF-induced DNA synthesis (BrdU incorporation) in 3T3/EGFRc7 cells; assay type: cell-based
Description: as §1, §2, §3, §4, §5, §6, §7, §8, §9, §10, §11, §12
(3) On day 3, ligand (2n EGF or 1.5 nM FGF or 3.8 nM PDGF) prepared in DMEM with 0.1% BSA and 30 μM (final concentration) uridine) and test compound was added to the cells simultaneously.
The negative control wells received serum free DMEM with 0.1% BSA only; the positive control cells received ligand but no test compound. Test compound was prepared in serum free DMEM with ligand in a 96 well plate, and serially diluted for 7 test concentrations.
(4) After 20 hours of ligand activation, diluted BrdU labeling reagent (1:100 in DMEM, 0.1% BSA) was added and the cells were incubated with BrdU (final concentration=10 μM) for 1.5 hours.
(5) After incubation with labeling reagent, the medium was removed by decanting and tapping the inverted plate on a paper towel. FixDenat solution was added (50 μl/well) and the plates incubated at room temperature for 45 minutes on a plate shaker.
(6) The FixDenat solution was thoroughly removed by decanting and tapping the inverted plate on a paper towel. Milk is added (5% dehydrated milk in PBS, 200 μl/well) as a blocking solution and the plate was incubated for 30 minutes at room temperature on a plate shaker.
(7) The blocking solution was removed by decanting and the wells were washed once with PBS. Anti-BrdU-POD solution (1:100 dilution in PBS, 1% BSA) was added (100 μl/well) and the plate was incubated for 90 minutes at room temperature on a plate shaker.
(8) The antibody conjugate was thoroughly removed by decanting and rinsing the wells 5 times with PBS, and the plate dried by inverting and tapping on a paper towel.
(9) TMB substrate solution was added (100 μl/well) and incubated for 20 minutes at room temperature on a plate shaker until color development was sufficient for photometric detection.
as §14

[3] = test system: PDGFR; assay: PDGF-induced DNA synthesis (BrdU incorporation) in 3T3/EGFRc7 cells; assay type: cell-based; conditions: 3.8 nM PDGF, read-out: PDGF-induced (inhibition of DNA synthesis)
Description: as §1, §2, §3, §4, §5, §6, §7, §8, §9, §10, §11, §12, §13, §14

[4] = test system: C6 cells (glioblastoma); assay: Subcutaneous xenograft experiment, inhibition of tumor growth in vivo; conditions: for inhibition (% of control): 30 mg/kg/day IP in DMSO, tumor volume
Description: Female athymic mice (BALB/c, nu/nu) were obtained from Simonsen Laboratories (Gilroy, Calif.). All animals were maintained under clean-room conditions in Micro-isolator cages with Alpha-dri bedding. They received sterile rodent chow and water ad libitum.
Cell lines were grown in Ham's F10 plus 5% fetal bovine serum (FBS) and 2 mM glutamine (GLN). All cell culture media, glutamine, and fetal bovine serum were purchased from Gibco Life Technologies (Grand Island, N.Y.) unless otherwise specified. All cells were grown in a humid atmosphere of 90-95% air and 5-10% CO2 at 37° C. All cell lines were routinely subcultured twice a week and were negative for mycoplasma as determined by the Mycotect method (Gibco).
Cells were harvested at or near confluency with 0.05% Trypsin-EDTA and pelleted at 450×g for 10 min. Pellets were resuspended in sterile PBS or media (without FBS) and the cells were implanted into the hindflank of the mice (8-10 mice per group 3×10^6 cells/animal). Tumor growth was measured over 3 weeks using venier calipers. Tumor volumes were calculated as a product of length×width×height unless otherwise indicated. P values were calculated using the Students' t-test. Cmpd. 1 in 50 μL excipient (DMSO) was delivered by IP bolus injection daily.

[5] = 1.5 nM FGF, Table 2 experiment, read-out: FGF-induced (inhibition of DNA synthesis)
[6] = FGF induced DNA synthesis, with added uridine (30 μM), read-out: IC50 + uridine
[7] = FGF induced DNA synthesis, without added uridine, read-out: IC50 − uridine

T1 sequence (P00533 25-1210): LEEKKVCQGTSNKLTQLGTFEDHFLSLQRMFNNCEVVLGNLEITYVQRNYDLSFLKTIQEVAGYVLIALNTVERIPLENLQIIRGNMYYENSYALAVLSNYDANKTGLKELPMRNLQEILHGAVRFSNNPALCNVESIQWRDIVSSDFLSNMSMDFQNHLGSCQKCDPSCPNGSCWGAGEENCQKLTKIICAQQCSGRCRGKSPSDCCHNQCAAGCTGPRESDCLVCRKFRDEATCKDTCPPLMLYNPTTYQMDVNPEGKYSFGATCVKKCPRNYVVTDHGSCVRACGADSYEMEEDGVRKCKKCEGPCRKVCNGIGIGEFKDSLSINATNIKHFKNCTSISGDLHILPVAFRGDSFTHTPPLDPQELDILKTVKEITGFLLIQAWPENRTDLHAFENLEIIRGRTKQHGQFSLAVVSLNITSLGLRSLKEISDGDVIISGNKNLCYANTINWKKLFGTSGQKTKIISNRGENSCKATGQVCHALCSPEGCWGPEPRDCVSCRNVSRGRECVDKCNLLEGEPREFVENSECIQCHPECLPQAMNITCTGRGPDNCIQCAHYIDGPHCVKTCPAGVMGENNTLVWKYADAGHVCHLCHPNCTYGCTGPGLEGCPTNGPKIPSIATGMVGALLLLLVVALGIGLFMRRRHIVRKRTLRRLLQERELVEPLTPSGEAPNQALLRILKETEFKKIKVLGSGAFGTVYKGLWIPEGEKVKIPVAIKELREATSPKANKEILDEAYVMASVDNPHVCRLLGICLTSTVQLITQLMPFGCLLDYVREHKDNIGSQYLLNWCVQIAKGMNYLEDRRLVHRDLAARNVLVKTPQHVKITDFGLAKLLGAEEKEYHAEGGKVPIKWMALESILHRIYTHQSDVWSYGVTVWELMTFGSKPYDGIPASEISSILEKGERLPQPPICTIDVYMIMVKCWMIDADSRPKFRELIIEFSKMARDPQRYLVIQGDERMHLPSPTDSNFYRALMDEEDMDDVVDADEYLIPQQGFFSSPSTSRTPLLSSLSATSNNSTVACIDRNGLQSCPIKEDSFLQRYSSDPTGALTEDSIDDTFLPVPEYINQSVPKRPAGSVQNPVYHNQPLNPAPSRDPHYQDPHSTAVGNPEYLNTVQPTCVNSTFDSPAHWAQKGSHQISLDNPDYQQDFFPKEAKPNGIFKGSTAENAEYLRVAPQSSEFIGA

IC50 [1] [µM]	IC50 [2, 5] [µM]	IC50 [2, 6] [µM]	IC50 [2, 7] [µM]	IC50 [3] [µM]	Structure (SMILES)	also measured
> 100	> 100			> 100	Cc1noc(C)c1C(=O)Nc1ccc(C(F)(F)F)cc1 [cmpd. 21, 3,5-Dimethyl-4-[4-(trifluoromethyl)phenylaminocarbonyl]isoxazole]	
> 100	> 100			95	Cc1n[nH]cc1C(=O)Nc1ccc(C(F)(F)F)cc1 [cmpd. 2, 3-Methyl-4-[4-(trifluoromethyl)phenylaminocarbonyl]pyrazole]	
		> 100	20		C/C(O)=C(\C#N)C(=O)Nc1ccc(C(F)(F)F)cc1 [A771726]	
		> 100	1.6		Cc1c(-c2ccc(-c3ccccc3F)cc2)nc2ccc(F)cc2c1C(=O)O [brequinar]	
		80	20		Cc1oncc1C(=O)Nc1ccc(C(F)(F)F)cc1 [leflunomide, 4-(-(4′-trifluoromethylphenyl)carboxamido)-5-methyl-isoxazole]	

Structure (SMILES)	IC50 [1] [µM]	IC50 [2, 5] [µM]	IC50 [2, 6] [µM]	IC50 [2, 7] [µM]	IC50 [3] [µM]	also measured
Cc1nocc1C(=O)Nc1ccc(C(F)(F)F)cc1 [cmpd. 1, 3-Methyl-4-[4-(trifluoromethyl)phenyl-aminocarbonyl]isoxazole]	> 100	65	70	85	90	toxic effect at the dose tested ([4]; 30 mg/kg/day IP, xenograft mice): no toxic effect; mortality ([4]; Day 8, 30 mg/kg/day IP): 0; inhibition (% of control) ([4]; Day 8): 34 % of control; mortality ([4]; Day 10, 30 mg/kg/day IP): 0; inhibition (% of control) ([4]; Day 10): 42 % of control; mortality ([4]; Day 13, 30 mg/kg/day IP): 0; inhibition (% of control) ([4]; Day 13): 48 % of control; mortality ([4]; Day 15, 30 mg/kg/day IP): 0; inhibition (% of control) ([4]; Day 15): 47 % of control; mortality ([4]; Day 17, 30 mg/kg/day IP): 0; inhibition (% of control) ([4]; Day 17): 50 % of control; mortality ([4]; Day 20, 30 mg/kg/day IP): 0; inhibition (% of control) ([4]; Day 20): 52 % of control
